Laboratory results from patent US6969449B2, “Multi-well plate and electrode assemblies for ion channel assays” (Vertex Pharmaceuticals (San Diego) LLC, priority 2000, dated 2005).

Assays:
HL5 cells = format: cell-based
IRK1 channel = IRK1 channel (Rattus norvegicus, UniProt Q64273)
Sequence of IRK1 channel (Q64273 whole entry): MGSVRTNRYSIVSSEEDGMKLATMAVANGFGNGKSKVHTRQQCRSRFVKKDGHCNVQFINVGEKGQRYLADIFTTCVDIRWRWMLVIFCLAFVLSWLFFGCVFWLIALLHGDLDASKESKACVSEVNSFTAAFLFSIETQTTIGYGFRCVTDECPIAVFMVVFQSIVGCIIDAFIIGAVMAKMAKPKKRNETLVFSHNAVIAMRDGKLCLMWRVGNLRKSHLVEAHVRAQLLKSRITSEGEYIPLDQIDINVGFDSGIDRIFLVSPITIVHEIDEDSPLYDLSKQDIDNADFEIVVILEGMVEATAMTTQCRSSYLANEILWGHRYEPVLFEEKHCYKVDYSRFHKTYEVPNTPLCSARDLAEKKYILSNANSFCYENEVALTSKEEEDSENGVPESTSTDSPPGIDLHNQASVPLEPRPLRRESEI

**Q.** Which results are given for `NC1=N[C@H](O)[C@H]2[C@H]3O[C@]4(O)O[C@@H]([C@@H](O)[C@@]2(N1)[C@@H]4O)[C@]3(O)CO` [TTX, tetrodotoxin]?
**A.** block of the positive response (HL5 cells): partially blocks the positive response; effect on sustained signal above 50 V/cm (HL5 cells): unaffected

**Q.** For `[Ba+2].[Cl-].[Cl-]` [barium chloride], which “voltage change during stimulation with barium block” value (IRK1 channel) is on record?
**A.** no detectable voltage change

**Q.** `CC[N+](CC)(CC)CC` [TEA, Tetraethylammonium] was tested. Which “block of response to electrical stimulation” value (wild-type HEK-293 cells) did it give?
**A.** partially blocks the response
